Experimental data from patent publication US11407757B2, “Heterocycle compounds as Tyro3, Axl and MerTK (TAM) family of receptor tyrosine kinase inhibitors” (Development Center for Biotechnology, priority 2017, dated 2022).

Assays:
[1] = target: Mer kinase (Homo sapiens (Human), UniProt Q12866); experiment: Mer kinase assay (AlphaScreen); settings: read-out: Mer kinase IC50; activity level class
[2] = target: Axl kinase (Homo sapiens (Human), UniProt P30530); experiment: Axl kinase assay (AlphaScreen); assay type: biochemical; settings: activity level class
Axl kinase, sequence (P30530 26-894): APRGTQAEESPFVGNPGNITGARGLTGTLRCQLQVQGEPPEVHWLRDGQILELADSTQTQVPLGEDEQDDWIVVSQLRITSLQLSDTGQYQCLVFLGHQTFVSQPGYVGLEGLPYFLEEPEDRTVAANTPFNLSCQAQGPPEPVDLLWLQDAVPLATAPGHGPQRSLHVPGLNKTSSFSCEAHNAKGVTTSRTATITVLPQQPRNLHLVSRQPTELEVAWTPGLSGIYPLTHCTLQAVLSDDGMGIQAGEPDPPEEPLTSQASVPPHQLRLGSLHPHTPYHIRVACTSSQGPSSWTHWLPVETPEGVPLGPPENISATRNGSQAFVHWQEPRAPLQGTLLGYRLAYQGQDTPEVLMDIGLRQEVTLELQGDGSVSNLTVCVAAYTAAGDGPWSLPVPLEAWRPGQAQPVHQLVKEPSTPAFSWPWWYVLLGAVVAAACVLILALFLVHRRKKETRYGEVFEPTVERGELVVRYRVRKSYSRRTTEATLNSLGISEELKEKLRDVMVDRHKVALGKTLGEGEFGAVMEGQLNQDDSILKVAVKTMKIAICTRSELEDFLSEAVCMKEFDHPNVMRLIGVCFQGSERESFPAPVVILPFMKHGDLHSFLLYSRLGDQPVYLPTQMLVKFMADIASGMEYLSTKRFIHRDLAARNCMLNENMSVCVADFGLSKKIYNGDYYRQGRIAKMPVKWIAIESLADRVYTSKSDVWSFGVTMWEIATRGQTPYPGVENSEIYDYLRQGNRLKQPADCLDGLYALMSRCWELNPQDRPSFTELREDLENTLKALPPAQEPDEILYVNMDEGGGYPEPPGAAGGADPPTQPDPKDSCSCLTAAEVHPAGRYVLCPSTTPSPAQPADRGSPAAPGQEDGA

Mer kinase, sequence (Q12866 21-999): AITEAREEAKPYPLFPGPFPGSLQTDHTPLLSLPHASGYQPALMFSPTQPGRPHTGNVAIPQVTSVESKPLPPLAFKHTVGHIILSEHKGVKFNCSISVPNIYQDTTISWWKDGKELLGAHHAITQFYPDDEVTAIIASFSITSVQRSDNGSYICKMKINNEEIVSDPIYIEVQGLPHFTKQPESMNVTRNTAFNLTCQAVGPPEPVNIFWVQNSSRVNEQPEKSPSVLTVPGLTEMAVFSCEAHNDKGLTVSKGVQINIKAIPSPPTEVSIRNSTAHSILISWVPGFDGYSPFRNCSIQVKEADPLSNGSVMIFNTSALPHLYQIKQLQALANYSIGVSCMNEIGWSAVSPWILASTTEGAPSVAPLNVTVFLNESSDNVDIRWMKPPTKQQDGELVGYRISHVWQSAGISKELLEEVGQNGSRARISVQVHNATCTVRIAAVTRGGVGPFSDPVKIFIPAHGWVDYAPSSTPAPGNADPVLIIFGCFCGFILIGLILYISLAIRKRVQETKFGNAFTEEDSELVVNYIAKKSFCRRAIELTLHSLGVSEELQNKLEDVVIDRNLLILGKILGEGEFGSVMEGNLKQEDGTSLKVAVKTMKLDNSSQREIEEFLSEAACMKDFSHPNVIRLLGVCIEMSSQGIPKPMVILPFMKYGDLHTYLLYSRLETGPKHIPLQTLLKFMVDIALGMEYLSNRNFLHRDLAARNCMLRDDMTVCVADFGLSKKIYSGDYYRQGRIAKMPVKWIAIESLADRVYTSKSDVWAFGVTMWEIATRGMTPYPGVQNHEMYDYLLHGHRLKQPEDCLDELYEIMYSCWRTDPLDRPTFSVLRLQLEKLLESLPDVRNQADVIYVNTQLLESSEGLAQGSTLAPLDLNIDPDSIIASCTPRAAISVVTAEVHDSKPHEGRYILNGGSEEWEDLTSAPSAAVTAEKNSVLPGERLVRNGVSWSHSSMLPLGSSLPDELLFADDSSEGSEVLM

Row | SMILES | IC50 [1] [µM] | IC50 [2] [µM]
1 | COc1nc(Nc2ccc(CN3CCC(N)CC3)cc2)nc2[nH]cc(-c3ccc(S(=O)(=O)N(C)C)cc3)c12 [Compound 6, 4-(2-((4-((4-aminopiperidin-1-yl)methyl)phenyl)amino)-4-methoxy-7H-pyrrolo[2,3-d]pyrimidin-5-yl)-N,N-dimethylbenzene-sulfonamide] | > 1 | –
2 | COc1nc(Nc2ccc(CN3CCOCC3)cc2)nc2[nH]cc(-c3ccc(S(=O)(=O)N(C)C)cc3)c12 [Compound 7, 4-(4-methoxy-2-((4-(morpholinomethyl)phenyl)amino)-7H-pyrrolo[2,3-d]pyrimidin-5-yl)-N,N-dimethylbenzene-sulfonamide] | > 1 | –
3 | COc1ccc(-c2c[nH]c3nc(Nc4ccc(CN5CCN(C)CC5)cc4)nc(OC)c23)cc1 [Compound 20, 4-methoxy-5-(4-methoxyphenyl)-N-(4-((4-methylpiperazin-1-yl)methyl)phenyl)-7H-pyrrolo[2,3-d] pyrimidin-2-amine] | > 1 | –
4 | COc1nc(Nc2ccc(CN3CCC(C)CC3)cc2)nc2[nH]cc(-c3ccc(NC(=O)c4cc(C)n(C)n4)cc3)c12 [Compound 26, N-(4-(4-methoxy-2-((4-((4-methylpiperidin-1-yl)methyl)phenyl)amino)-7H-pyrrolo[2,3-d]pyrimidin-5-yl)phenyl)-1,5-dimethyl-7H-pyrazole-3-carboxamide] | > 1 | –
5 | COc1cc(-c2c[nH]c3nc(Nc4ccc(CN5CCC(C)CC5)cc4)nc(OC)c23)ccc1OCc1ccccc1 [Compound 44, 5-(4-(benzyloxy)-3-methoxyphenyl)-4-methoxy-N-(4-((4-methylpiperidin-1-yl)methyl)phenyl)-7H-pyrrolo[2,3-d] pyrimidin-2-amine] | > 1 | –
6 | COc1nc(Nc2ccc(CN3CCN(C)CC3)cc2)nc2[nH]cc(-c3ccc(OCc4ccccc4)cc3F)c12 [Compound 46, 5-(4-(benzyloxy)-2-fluorophenyl)-4-methoxy-N-(4-((4-methylpiperazin-1-yl)methyl)phenyl)-7H-pyrrolo[2,3-d]pyrimidin-2-amine] | > 1 | –
7 | COCCOc1nc(Nc2ccc(CN3CCN(C)CC3)cc2)nc2[nH]cc(-c3ccc(C(F)(F)F)cc3)c12 [Compound 84, 4-(2-methoxyethoxy)-N-(4-((4-methylpiperazin-1-yl)methyl)phenyl)-5-(4-(trifluoromethyl)phenyl)-7H-pyrrolo[2,3-d]pyrimidin-2-amine] | > 1 | –
8 | CCN(CC)S(=O)(=O)c1ccc(-c2c[nH]c3nc(Nc4ccc(CN5CCN(C)CC5)cc4)nc(OCCOC)c23)cc1 [Compound 86, N,N-diethyl-4-(4-(2-methoxyethoxy)-2-((4-((4-methylpiperazin-1-yl)methyl)phenyl)amino)-7H-pyrrolo[2,3-d]pyrimidin-5-yl)benzenesulfonamide] | > 1 | –
9 | COCCOc1nc(Nc2ccc(CN3CCN(C)CC3)cc2)nc2[nH]cc(-c3ccc(S(=O)(=O)N4CC(C)CC(C)C4)cc3)c12 (centres unmarked) [Compound 87, 5-(4-((3,5-dimethylpiperidin-1-yl)sulfonyl)phenyl)-4-(2-methoxyethoxy)-N-(4-((4-methylpiperazin-1-yl)methyl)phenyl)-7H-pyrrolo[2,3-d]pyrimidin-2-amine] | > 1 | –
10 | COCCOc1nc(Nc2ccc(CN3CCN(C)CC3)cc2)nc2[nH]cc(-c3ccc(S(=O)(=O)N4CCOCC4)cc3)c12 [Compound 88, 4-(2-methoxyethoxy)-N-(4-((4-methylpiperazin-1-yl)methyl)phenyl)-5-(4-(morpholinosulfonyl)phenyl)-7H-pyrrolo[2,3-d]pyrimidin-2-amine] | > 1 | –
11 | COCCOc1nc(Nc2ccc(CN3CCN(C)CC3)cc2)nc2[nH]cc(-c3ccc(S(=O)(=O)C(C)C)cc3)c12 [Compound 89, 5-(4-(isopropylsulfonyl)phenyl)-4-(2-methoxyethoxy)-N-(4-((4-methylpiperazin-1-yl)methyl)phenyl)-7H-pyrrolo[2,3-d]pyrimidin-2-amine] | > 1 | –
12 | COCCOc1nc(Nc2ccc(CN3CCN(C)CC3)cc2)nc2[nH]cc(-c3ccc(OCc4ccccn4)cc3F)c12 [Compound 92, 5-(2-fluoro-4-(pyridin-2-ylmethoxy)phenyl)-4-(2-methoxyethoxy)-N-(4-((4-methylpiperazin-1-yl)methyl)phenyl)-7H-pyrrolo[2,3-d]pyrimidin-2-amine] | – | < 0.03
13 | COCCOc1nc(Nc2ccc(CN3CCN(C)CC3)cc2)nc2[nH]cc(-c3ccc4c(cnn4C)c3)c12 [Compound 97, 4-(2-methoxyethoxy)-5-(1-methyl-7H-indazol-5-yl)-N-(4-((4-methylpiperazin-1-yl)methyl)phenyl)-7H-pyrrolo[2,3-d]pyrimidin-2-amine] | – | < 0.03
14 | COCCOc1nc(Nc2ccc(CN3CCN(C)CC3)cc2)nc2[nH]cc(-c3ccc(OCc4cccc(C)n4)cc3F)c12 [Compound 103, 5-(2-fluoro-4-((6-methylpyridin-2-yl)methoxy)phenyl)-4-(2-methoxyethoxy)-N-(4-((4-methylpiperazin-1-yl)methyl)phenyl)-7H-pyrrolo[2,3-d]pyrimidin-2-amine] | – | < 0.03
15 | COCCOc1nc(Nc2ccc(CN3CCN(C)CC3)cc2)nc2[nH]cc(-c3ccc(OCc4cccc(F)n4)cc3F)c12 [Compound 104, 5-(2-fluoro-4-((6-fluoropyridin-2-yl)methoxy)phenyl)-4-(2-methoxyethoxy)-N-(4-((4-methylpiperazin-1-yl)methyl)phenyl)-7H-pyrrolo[2,3-d]pyrimidin-2-amine] | – | < 0.03
16 | COCCOc1nc(Nc2ccc(CN3CCN(C)CC3)cc2)nc2[nH]cc(-c3ccc(OCc4ccc(C)cn4)cc3F)c12 [Compound 105, 5-(2-fluoro-4-((5-methylpyridin-2-yl)methoxy)phenyl)-4-(2-methoxyethoxy)-N-(4-((4-methylpiperazin-1-yl)methyl)phenyl)-7H-pyrrolo[2,3-d]pyrimidin-2-amine] | – | < 0.03
17 | COCCOc1nc(Nc2ccc(CN3CCN(C)CC3)cc2)nc2[nH]cc(-c3ccc(OCc4ncccn4)cc3F)c12 [Compound 107, 5-(2-fluoro-4-(pyrimidin-2-ylmethoxy)phenyl)-4-(2-methoxyethoxy)-N-(4-((4-methylpiperazin-1-yl)methyl)phenyl)-7H-pyrrolo[2,3-d]pyrimidin-2-amine] | – | < 0.03
18 | COCCOc1nc(Nc2ccc(CN3CCN(C)CC3)cc2)nc2[nH]cc(-c3ccc(OCc4ccccn4)cc3)c12 [Compound 110, 4-(2-methoxyethoxy)-N-(4-((4-methylpiperazin-1-yl)methyl)phenyl)-5-(4-(pyridin-2-ylmethoxy)phenyl)-7H-pyrrolo[2,3-d]pyrimidin-2-amine] | – | < 0.03
19 | COCCOc1nc(Nc2ccc(CN3CCC(C)CC3)cc2)nc2[nH]cc(-c3ccc(OCc4ncccc4C)cc3F)c12 [Compound 111, 5-(2-fluoro-4-((3-methylpyridin-2-yl)methoxy)phenyl)-4-(2-methoxyethoxy)-N-(4-((4-methylpiperidin-1-yl)methyl)phenyl)-7H-pyrrolo[2,3-d]pyrimidin-2-amine] | – | < 0.03
20 | CCN1CCN(Cc2ccc(Nc3nc(OCCOC)c4c(-c5ccc(OCc6ncccc6C)cc5F)c[nH]c4n3)cc2)CC1 [Compound 112, N-(4-((4-ethylpiperazin-1-yl)methyl)phenyl)-5-(2-fluoro-4-((3-methylpyridin-2-yl)methoxy)phenyl)-4-(2-methoxyethoxy)-7H-pyrrolo[2,3-d]pyrimidin-2-amine] | – | < 0.03
